Key:
[1] = Intraperitoneal glucose tolerance test (IPGTT) in rats; format: in vivo, rat; settings: catechin 10 mg/kg i.v. 30 min before glucose 2.0 g/kg i.p.; 12-h fasted rats (FIG. 2)
Protocol: Sprague-Dawley rats were provided by Hyochang Science Co. (Seoul, Korea). After a 12-h fast, rats were anesthetized using pentobarbital sodium (40 mg/kg, i.p.; Nembutal, 50 mg/ml, Hanlim Pharmaceutical Co., Seoul, Korea) and then injected with one of the epicatechins: EGCG, EGC, ECG, and EC (each 10 mg/kg in 300 μl PBS, i.v.). EC was dissolved in a minute amount of DMSO in advance before addition of PBS. In another experiment, rats were randomly divided into 3 groups: control, GTE and GTE-GC. The rats in the GTE group were injected with natural GTE (100 mg/kg in 300 μl PBS, i.v.; 10 mg/kg as EGCG) through the tail vein, while the control rats were injected with only 300 μl PBS and rats in the GTE-GC group were given an equal amount of GC-deficient GTE (100 mg/kg in 300 μl PBS, i.v.; 2.6 mg/kg as EGCG). Thirty minutes after the injection, glucose (2.0 g/kg in 600 μl distilled water, i.p.) was injected. For OGTT, the rats were ingested with 1-ml distilled water only (control), or 1-ml distilled water containing one of natural GTE (900 mg/kg), GC-deficient GTE (900 mg/kg), EGCG (90 mg/kg), natural GTE plus PEG (110 mg/100 mg EGCG) or PEG alone. Immediately after the ingestion, each rat was orally given 1-ml distilled water containing glucose (2 g/kg). For the assay of blood glucose levels, blood was drawn from the tail vein at the indicated times. All the experiments were approved by the Keimyung University institutional ethics committee, Daegu, Korea for supervising animal research.

[2] = molecular target: T1, glucose transporter type 1 (Homo sapiens, UniProt P11166); settings: red blood cells; read-out: concentration competing with glucose such that the reaction rate was half its maximal value; cited from earlier work
T1 construct: glucose transporter type 1 in red blood cells; host or cells: red blood cells (erythrocytes)
T1 sequence (P11166 1-492): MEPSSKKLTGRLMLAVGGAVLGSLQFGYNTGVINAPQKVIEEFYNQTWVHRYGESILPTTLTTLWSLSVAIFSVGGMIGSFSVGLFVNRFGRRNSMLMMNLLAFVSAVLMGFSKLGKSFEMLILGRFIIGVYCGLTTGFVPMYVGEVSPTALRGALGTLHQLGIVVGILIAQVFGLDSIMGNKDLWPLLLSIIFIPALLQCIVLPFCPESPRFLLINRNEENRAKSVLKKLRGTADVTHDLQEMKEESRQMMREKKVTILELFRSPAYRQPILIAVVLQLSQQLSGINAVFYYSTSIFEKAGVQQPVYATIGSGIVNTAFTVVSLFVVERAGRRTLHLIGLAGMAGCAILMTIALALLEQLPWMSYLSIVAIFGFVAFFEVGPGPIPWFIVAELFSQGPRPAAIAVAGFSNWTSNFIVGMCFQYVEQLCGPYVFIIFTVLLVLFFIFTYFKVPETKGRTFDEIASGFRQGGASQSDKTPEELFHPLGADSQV

U937 cells = settings: cited from earlier work
[3] = 10 mg/kg i.v.; rats; cited from earlier work
INS-1 beta cells = assay: Deoxyglucose uptake assay, INS-1; format: cell-based, rat; settings: EGCG 0.1, 1.0, 10 μM; with or without 100 nM insulin (FIG. 3D)
Protocol: (§1) Rat L6 myoblasts were cultured in low-glucose DMEM with 10% (v/v) FBS until they reached 80% confluency. To induce differentiation, cells were further cultured in DMEM (24.9 mM glucose) containing 2% FBS for 7 days. Cell viability was assessed by the trypan blue viability test. Myogenic differentiation to myotube status was evaluated both morphologically and biochemically. Mouse 3T3-L1 preadipocytes were grown to confluence at 37° C. in 35-mm culture dishes in DMEM containing 10% FCS with no added biotin or pantothenate in incubators equilibrated with 5% CO2. […] Cell differentiation was evaluated by the Oil red-0 staining. […]
(§2) Briefly, after serum starvation for 30 min, the cells were washed with Krebs-Ringer phosphate-HEPES buffer [KRPH buffer: 10 mM phosphate buffer, pH 7.4; 1 mM MgSO4, 1 mM CaCl2, 136 mM NaCl, 4.7 mM KCl, and 10 mM HEPES, pH 7.6] and then incubated with or without 100 nM insulin for 20 min in KRPH buffer that contained EGCG (0, 0.1, 1.0 or 10 μM). Glucose transport was determined by the addition of 2-deoxy-[^3H] glucose (0.1 mM, 0.5 μCi/ml; PerkinElmer Life and Analytical Science, Waltham, Mass.). […] The cells were then lysed in PBS containing 0.2 M NaOH, and glucose uptake was assessed by scintillation counting.

[4] = Insulin tolerance test (ITT) in normal rats; format: in vivo, rat
Protocol: Kir6.2 knock-out (k/o) mice were kindly provided by Prof. Susumu Seino at Kobe University in Japan. Following a 4-h fast, Kir6.2 k/o mice or normal rats were intravenously injected with PBS (100 μl for mouse, 300 μl for rat) only, or PBS containing EGCG (10 mg/kg), natural GTE (100 mg/kg) or GC-deficient GTE (100 mg/kg). Thirty minutes after the injection, the mice and rats were injected intraperitoneally with normal saline (300 μl for mouse, 600 μl for rat) containing insulin (1 IU/kg; INSULIN […], Ind.). Blood samplings were done through the tail vein at the indicated times.

[5] = test system: differentiated L6 myoblasts; assay: Deoxyglucose uptake assay, L6; format: cell-based, rat; settings: EGCG 0.1, 1.0, 10 μM; with or without 100 nM insulin (FIG. 3A)
Protocol: as §1, §2

OGTT in rats = format: in vivo, rat; settings: GC-deficient GTE 900 mg/kg or EGCG 90 mg/kg oral immediately before oral glucose; rats (FIG. 6D)
[6] = relatively long-term intraperitoneal application; rats; cited from earlier work
protein kinase B (PKB) [7] = assay: Western blot of PKB phosphorylation, INS-1; format: cell-based, rat; settings: up to 10 μM EGCG; with or without 100 nM insulin (FIG. 4D)
HepG2 hepatocytes = assay: Deoxyglucose uptake assay, HepG2; format: cell-based, human; settings: EGCG 0.1, 1.0, 10 μM; with or without 100 nM insulin (FIG. 3B)
Protocol: as §1, §2

protein kinase B (PKB) [8] = assay: Western blot of PKB phosphorylation, HepG2; format: cell-based, human; settings: up to 10 μM EGCG; with or without 100 nM insulin (FIG. 4B)
Protocol: (§3) Rat L6 myoblasts were cultured in low-glucose DMEM with 10% (v/v) FBS until they reached 80% confluency. To induce differentiation, cells were further cultured in DMEM (24.9 mM glucose) containing 2% FBS for 7 days. Cell viability was assessed by the trypan blue viability test. Myogenic differentiation to myotube status was evaluated both morphologically and biochemically. Mouse 3T3-L1 preadipocytes were grown to confluence at 37° C. in 35-mm culture dishes in DMEM containing 10% FCS with no added biotin or pantothenate in incubators equilibrated with 5% CO2. At two days post-confluence (day 0), differentiation was induced with methylisobutylxanthine (0.5 mM), dexamethasone (0.5 μM) and insulin (5 μg/ml) in DMEM containing 10% FBS. On day 2, methylisobutylxanthine and dexamethasone were removed and insulin treatment was continued for 2 additional days. On day 4 and thereafter, DMEM (without insulin supplementation) plus 10% FBS was replaced every 2 days. Cells (2×10^6 cells/dish) were used for experiments on day 8. Cell differentiation was evaluated by the Oil red-0 staining. Human hepatocellular carcinoma HepG2 cell line was maintained in DMEM containing 10% FBS at 37° C. […]

[9] = test system: differentiated 3T3-L1 adipocytes; assay: Deoxyglucose uptake assay, 3T3-L1; format: cell-based, mouse; settings: EGCG 0.1, 1.0, 10 μM; with or without 100 nM insulin (FIG. 3C)
Protocol: as §1, §2

protein kinase B (PKB) [10] = assay: Western blot of PKB phosphorylation, L6; format: cell-based, rat; settings: up to 10 μM EGCG; with or without 100 nM insulin (FIG. 4A)
Protocol: as §3

protein kinase B (PKB) [11] = assay: Western blot of PKB phosphorylation, 3T3-L1; format: cell-based, mouse; settings: up to 10 μM EGCG; with or without 100 nM insulin (FIG. 4C)
Protocol: as §3

[12] = Insulin tolerance test (ITT) in Kir6.2 k/o mice; format: in vivo, mouse
Protocol: Kir6.2 knock-out (k/o) mice were kindly provided by Prof. Susumu Seino at Kobe University in Japan. Following a 4-h fast, Kir6.2 k/o mice or normal rats were intravenously injected with PBS (100 μl for mouse, 300 μl for rat) only, or PBS containing EGCG (10 mg/kg), natural GTE (100 mg/kg) or GC-deficient GTE (100 mg/kg). Thirty minutes after the injection, the mice and rats were injected intraperitoneally with normal saline (300 μl for mouse, 600 μl for rat) containing insulin (1 IU/kg; INSULIN LISPRO, Eli Lilly, Ind.). Blood samplings were done through the tail vein at the indicated times.

O=C(O[C@@H]1Cc2c(O)cc(O)cc2O[C@@H]1c1ccc(O)c(O)c1)c1cc(O)c(O)c(O)c1 [ECG, epicatechin-3-gallate]
blood glucose levels 30 min after glucose loading vs control [1]: more elevated | IC50 [2]: 100 nM

Oc1cc(O)c2c(c1)O[C@H](c1cc(O)c(O)c(O)c1)[C@H](O)C2 [EGC, epigallocatechin]
blood glucose levels 30 min after glucose loading vs control [1]: no effects

O=c1c(O)c(-c2cc(O)c(O)c(O)c2)oc2cc(O)cc(O)c12 [myricetin]
concentration that inhibits cellular glucose uptake (U937 cells): around 10 μM

O=c1c(O)c(-c2ccc(O)c(O)c2)oc2cc(O)cc(O)c12 [quercetin]
concentration that inhibits cellular glucose uptake (U937 cells): around 10 μM

Epigallocatechin-3-gallate [EGCG]
blood glucose levels 30 min after glucose loading vs control [1]: more elevated | blood concentration at 30 min after injection [3]: around 1 μM | basal and insulin-stimulated 2-deoxy-[3H]-glucose uptake (INS-1 beta cells): decreased by EGCG dose-dependently | rate of blood glucose disappearance when treated with insulin ([4]; EGCG 10 mg/kg i.v. 30 min before insulin 1 IU/kg i.p., rats, P<0.01 (FIG. 5C)): delayed mildly but significantly | blood glucose levels 30 min after injection ([4]; EGCG 10 mg/kg i.v., 4-h fasted normal rats, P<0.01 (FIG. 5A)): significant elevation | basal and insulin-stimulated 2-deoxy-[3H]-glucose uptake [5]: decreased by EGCG dose-dependently | IC50 [2]: 1000 nM | inhibition of glucose absorption compared with the GTE-treated group (OGTT in rats): less efficiently | effect on body weight [6]: weight loss | effect on the sexual organs [6]: significant deterioration in the sexual organs | basal and insulin-regulated expression of phospho-PKB (protein kinase B (PKB) [7]): did not alter | basal and insulin-stimulated 2-deoxy-[3H]-glucose uptake (HepG2 hepatocytes): decreased by EGCG dose-dependently | basal and insulin-regulated expression of phospho-PKB (protein kinase B (PKB) [8]): did not alter | basal and insulin-stimulated 2-deoxy-[3H]-glucose uptake [9]: decreased by EGCG dose-dependently | basal and insulin-regulated expression of phospho-PKB (protein kinase B (PKB) [10]): did not alter | basal and insulin-regulated expression of phospho-PKB (protein kinase B (PKB) [11]): did not alter | rate of blood glucose disappearance when treated with insulin ([12]; EGCG 10 mg/kg i.v. 30 min before insulin 1 IU/kg i.p., Kir6.2 k/o mice, P<0.01 (FIG. 5D)): delayed mildly but significantly | blood glucose levels 30 min after injection ([12]; EGCG 10 mg/kg i.v., 4-h fasted Kir6.2 k/o mice, P<0.01 (FIG. 5B)): significant elevation

Source: patent publication US9180156B2, “Composition for controlling increase in blood glucose” (priority 2008, dated 2015)
